#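 Interpolation was linear, between the two tested concentrations surrounding the appropriate level; five concentrations were tested over 48 hours in 96-well plates. Definition used: TGI = concentration required for complete inhibition of growth.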
# Key:
# Assay in all cases: NCI-60 cell line screen, 48 h
# NCI-H522 lung = system: NCI-H522 lung
# SNB-75 CNS = system: SNB-75 CNS
# SK-OV-3 ovarian = system: SK-OV-3 ovarian
# HT29 colon = system: HT29 colon
# LOX IMVI melanoma = system: LOX IMVI melanoma
# HCT-15 colon = system: HCT-15 colon
# HCT-116 colon = system: HCT-116 colon
# A498 renal = system: A498 renal
# SNB-19 CNS = system: SNB-19 CNS
# OVCAR-8 ovarian = system: OVCAR-8 ovarian
# CCRF-CEM leukemia = system: CCRF-CEM leukemia
# OVCAR-4 ovarian = system: OVCAR-4 ovarian
# KM12 colon = system: KM12 colon
# SN12C renal = system: SN12C renal
# SK-MEL-2 melanoma = system: SK-MEL-2 melanoma
# HCC-2998 colon = system: HCC-2998 colon
# OVCAR-3 ovarian = system: OVCAR-3 ovarian
# UACC-62 melanoma = system: UACC-62 melanoma
# A549 NSCLC = system: A549 NSCLC
# NCI/ADR-RES ovarian = system: NCI/ADR-RES ovarian
# MCF7 breast = system: MCF7 breast
# CAKI-1 renal = system: CAKI-1 renal
# COLO 205 colon = system: COLO 205 colon
# UACC-257 melanoma = system: UACC-257 melanoma
# U251 CNS = system: U251 CNS
# NCI-H226 lung = system: NCI-H226 lung
# IGROV1 ovarian = system: IGROV1 ovarian
# EKVX NSCLC = system: EKVX NSCLC
# RXF 393 renal = system: RXF 393 renal
# HOP-92 NSCLC = system: HOP-92 NSCLC
# NCI-H460 lung = system: NCI-H460 lung
# HOP-62 NSCLC = system: HOP-62 NSCLC
# SK-MEL-28 melanoma = system: SK-MEL-28 melanoma
# SW-620 colon = system: SW-620 colon
# MALME-3M melanoma = system: MALME-3M melanoma
# K-562 leukemia = system: K-562 leukemia
# SR leukemia = system: SR leukemia
# NCI-H23 lung = system: NCI-H23 lung
# OVCAR-5 ovarian = system: OVCAR-5 ovarian
# TK-10 renal = system: TK-10 renal
# ACHN renal = system: ACHN renal
# SF-539 CNS = system: SF-539 CNS
# RPMI-8226 leukemia = system: RPMI-8226 leukemia
# MDA-N = system: MDA-N
# UO-31 renal = system: UO-31 renal
# MOLT-4 leukemia = system: MOLT-4 leukemia
# T-47D breast = system: T-47D breast
# SK-MEL-5 melanoma = system: SK-MEL-5 melanoma
# MDA-MB-435 = system: MDA-MB-435
# PC-3 prostate = system: PC-3 prostate
# 786-0 renal = system: 786-0 renal
# BT-549 breast = system: BT-549 breast
# MDA-MB-231 breast = system: MDA-MB-231 breast
# SF-295 CNS = system: SF-295 CNS
# SF-268 CNS = system: SF-268 CNS
# DU-145 prostate = system: DU-145 prostate
# HS 578T breast = system: HS 578T breast
# M14 melanoma = system: M14 melanoma
# HL-60(TB) leukemia = system: HL-60(TB) leukemia
smiles,measurement,setting,value
CCOC(=O)/C=C(\C(=O)OCC)n1ccc(=O)n(Cc2cnnn2COCCOC(C)=O)c1=O,TGI,NCI-H522 lung,3.53 µM
same,TGI,SNB-75 CNS,40.1 µM
same,TGI,SK-OV-3 ovarian,> 100 µM
same,TGI,HT29 colon,28.1 µM
same,TGI,LOX IMVI melanoma,> 40.7 µM
same,TGI,HCT-15 colon,> 41.3 µM
same,TGI,HCT-116 colon,41.7 µM
same,TGI,A498 renal,41.3 µM
same,TGI,SNB-19 CNS,> 66.4 µM
same,TGI,OVCAR-8 ovarian,27.3 µM
same,TGI,CCRF-CEM leukemia,4.53 µM
same,TGI,OVCAR-4 ovarian,54.8 µM
same,TGI,KM12 colon,32.1 µM
same,TGI,SN12C renal,36.2 µM
same,TGI,SK-MEL-2 melanoma,38.5 µM
same,TGI,HCC-2998 colon,33.4 µM
same,TGI,OVCAR-3 ovarian,25.1 µM
same,TGI,UACC-62 melanoma,31 µM
same,TGI,A549 NSCLC,43.4 µM
same,TGI,NCI/ADR-RES ovarian,58.7 µM
same,TGI,MCF7 breast,21.4 µM
same,TGI,CAKI-1 renal,7.62 µM
same,TGI,COLO 205 colon,4.36 µM
same,TGI,UACC-257 melanoma,30.8 µM
same,TGI,U251 CNS,32.6 µM
same,TGI,NCI-H226 lung,43.2 µM
same,TGI,IGROV1 ovarian,36.7 µM
same,TGI,EKVX NSCLC,32.6 µM
same,TGI,RXF 393 renal,14.5 µM
same,TGI,HOP-92 NSCLC,2.16 µM
same,TGI,NCI-H460 lung,34.1 µM
same,TGI,HOP-62 NSCLC,38.5 µM
same,TGI,SK-MEL-28 melanoma,25.2 µM
same,TGI,SW-620 colon,5.93 µM
same,TGI,MALME-3M melanoma,4.34 µM
same,TGI,K-562 leukemia,> 100 µM
same,TGI,SR leukemia,> 31.2 µM
same,TGI,NCI-H23 lung,33.1 µM
same,TGI,OVCAR-5 ovarian,32 µM
same,TGI,TK-10 renal,12.6 µM
same,TGI,ACHN renal,10.2 µM
same,TGI,SF-539 CNS,5.66 µM
same,TGI,RPMI-8226 leukemia,> 42 µM
same,TGI,MDA-N,33 µM
same,TGI,UO-31 renal,30.5 µM
same,TGI,MOLT-4 leukemia,10.3 µM
same,TGI,T-47D breast,27.5 µM
same,TGI,SK-MEL-5 melanoma,54.3 µM
same,TGI,MDA-MB-435,22.5 µM
same,TGI,PC-3 prostate,33.7 µM
same,TGI,786-0 renal,15.3 µM
same,TGI,BT-549 breast,22.3 µM
same,TGI,MDA-MB-231 breast,35 µM
same,TGI,SF-295 CNS,> 66.6 µM
same,TGI,SF-268 CNS,36.4 µM
same,TGI,DU-145 prostate,37.7 µM
same,TGI,HS 578T breast,61.6 µM
same,TGI,M14 melanoma,31.7 µM
same,TGI,HL-60(TB) leukemia,2.04 µM
O=C(c1c2c(cc3c1CC1(Cc4cc5c(cc4C1)CCCC5)C3)CCCC2)C(Br)Br,TGI,NCI-H522 lung,3.18 µM
same,TGI,SNB-75 CNS,31.7 µM
same,TGI,SK-OV-3 ovarian,96.9 µM
same,TGI,HT29 colon,44.5 µM
same,TGI,LOX IMVI melanoma,3.42 µM
same,TGI,HCT-15 colon,33 µM
same,TGI,HCT-116 colon,29.1 µM
same,TGI,A498 renal,86.6 µM
same,TGI,SNB-19 CNS,> 55.1 µM
same,TGI,OVCAR-8 ovarian,50.4 µM
same,TGI,CCRF-CEM leukemia,5.14 µM
same,TGI,OVCAR-4 ovarian,41.6 µM
same,TGI,KM12 colon,56.3 µM
same,TGI,SN12C renal,44.9 µM
same,TGI,SK-MEL-2 melanoma,39.6 µM
same,TGI,HCC-2998 colon,54.3 µM
same,TGI,OVCAR-3 ovarian,38.9 µM
same,TGI,UACC-62 melanoma,34.3 µM
same,TGI,A549 NSCLC,> 100 µM
same,TGI,NCI/ADR-RES ovarian,50.7 µM
same,TGI,MCF7 breast,20.2 µM
same,TGI,CAKI-1 renal,24.2 µM
same,TGI,COLO 205 colon,32.7 µM
same,TGI,UACC-257 melanoma,41.9 µM
same,TGI,U251 CNS,30.3 µM
same,TGI,NCI-H226 lung,14.3 µM
same,TGI,IGROV1 ovarian,27.1 µM
same,TGI,EKVX NSCLC,> 59.8 µM
same,TGI,RXF 393 renal,28.7 µM
same,TGI,HOP-92 NSCLC,31.9 µM
same,TGI,NCI-H460 lung,> 100 µM
same,TGI,HOP-62 NSCLC,> 81.7 µM
same,TGI,SK-MEL-28 melanoma,30.7 µM
same,TGI,SW-620 colon,20.5 µM
same,TGI,MALME-3M melanoma,10.7 µM
same,TGI,K-562 leukemia,18 µM
same,TGI,SR leukemia,8.05 µM
same,TGI,NCI-H23 lung,36.5 µM
same,TGI,OVCAR-5 ovarian,> 66.7 µM
same,TGI,TK-10 renal,30.9 µM
same,TGI,ACHN renal,27 µM
same,TGI,SF-539 CNS,38.3 µM
same,TGI,RPMI-8226 leukemia,> 61.9 µM
same,TGI,MDA-N,29 µM
same,TGI,UO-31 renal,26.8 µM
same,TGI,MOLT-4 leukemia,6.33 µM
same,TGI,T-47D breast,27.9 µM
same,TGI,SK-MEL-5 melanoma,14.4 µM
same,TGI,MDA-MB-435,28.7 µM
same,TGI,PC-3 prostate,26.9 µM
same,TGI,786-0 renal,29.1 µM
same,TGI,BT-549 breast,21.6 µM
same,TGI,MDA-MB-231 breast,38.2 µM
same,TGI,SF-295 CNS,> 100 µM
same,TGI,SF-268 CNS,41.7 µM
same,TGI,DU-145 prostate,> 100 µM
same,TGI,HS 578T breast,> 70.2 µM
same,TGI,M14 melanoma,15.7 µM
same,TGI,HL-60(TB) leukemia,> 39.1 µM
